Measured values from PMC9962794, “A Novel and Functionally Diverse Class of Acetylcholine-Gated Ion Channels” (The Journal of Neuroscience, 2023).
Like-named read-outs stand apart in the source and are kept apart here. Each block holds one compound with its values, some of them ahead of it.

How the values were obtained:
Assay in all cases: two-electrode voltage clamp, oocytes
Type in all cases: cell-based
LGC-57 = target: T1, LGC-57 (Caenorhabditis elegans, UniProt Q09453)
T1 construct: full-length untagged cDNA in KSM vector, cRNA in Xenopus laevis oocytes; pentameric, expressed alone
T1 sequence (Q09453 20-473): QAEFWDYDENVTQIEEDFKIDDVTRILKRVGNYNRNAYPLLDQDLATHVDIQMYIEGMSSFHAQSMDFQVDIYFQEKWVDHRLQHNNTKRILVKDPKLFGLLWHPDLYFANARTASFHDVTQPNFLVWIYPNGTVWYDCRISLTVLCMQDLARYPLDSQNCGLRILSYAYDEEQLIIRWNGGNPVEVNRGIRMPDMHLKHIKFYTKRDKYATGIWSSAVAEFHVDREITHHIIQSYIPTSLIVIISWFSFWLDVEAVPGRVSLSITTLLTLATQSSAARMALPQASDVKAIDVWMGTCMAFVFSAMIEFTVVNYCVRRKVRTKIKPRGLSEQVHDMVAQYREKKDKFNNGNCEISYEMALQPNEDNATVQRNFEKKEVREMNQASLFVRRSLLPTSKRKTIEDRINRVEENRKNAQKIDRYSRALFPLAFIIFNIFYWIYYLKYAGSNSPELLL

LGC-40 = target: T2, LGC-40 (Caenorhabditis elegans, UniProt Q22741)
T2 construct: full-length untagged cDNA in KSM vector, cRNA in Xenopus laevis oocytes; pentameric, expressed alone
T2 sequence (Q22741 23-494): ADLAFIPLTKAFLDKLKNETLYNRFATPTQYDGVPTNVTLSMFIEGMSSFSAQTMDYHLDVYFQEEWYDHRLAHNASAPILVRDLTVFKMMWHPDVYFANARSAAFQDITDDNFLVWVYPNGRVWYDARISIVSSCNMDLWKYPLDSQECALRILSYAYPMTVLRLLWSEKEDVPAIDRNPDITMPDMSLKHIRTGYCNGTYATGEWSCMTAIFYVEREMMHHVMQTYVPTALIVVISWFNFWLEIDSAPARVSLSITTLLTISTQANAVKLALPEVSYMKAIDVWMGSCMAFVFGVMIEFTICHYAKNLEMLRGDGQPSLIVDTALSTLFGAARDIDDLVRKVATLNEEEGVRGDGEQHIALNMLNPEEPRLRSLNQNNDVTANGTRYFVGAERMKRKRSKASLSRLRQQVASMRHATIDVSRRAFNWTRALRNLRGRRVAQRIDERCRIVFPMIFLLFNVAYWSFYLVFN

LGC-46 = target: T3, LGC-46 (Caenorhabditis elegans, UniProt Q95Y52); settings: agonist; ND96, clamped at -60 mV
T3 construct: full-length cDNA in KSM vector, cRNA in Xenopus laevis oocytes; pentameric, expressed alone
T3 sequence (Q95Y52 19-508): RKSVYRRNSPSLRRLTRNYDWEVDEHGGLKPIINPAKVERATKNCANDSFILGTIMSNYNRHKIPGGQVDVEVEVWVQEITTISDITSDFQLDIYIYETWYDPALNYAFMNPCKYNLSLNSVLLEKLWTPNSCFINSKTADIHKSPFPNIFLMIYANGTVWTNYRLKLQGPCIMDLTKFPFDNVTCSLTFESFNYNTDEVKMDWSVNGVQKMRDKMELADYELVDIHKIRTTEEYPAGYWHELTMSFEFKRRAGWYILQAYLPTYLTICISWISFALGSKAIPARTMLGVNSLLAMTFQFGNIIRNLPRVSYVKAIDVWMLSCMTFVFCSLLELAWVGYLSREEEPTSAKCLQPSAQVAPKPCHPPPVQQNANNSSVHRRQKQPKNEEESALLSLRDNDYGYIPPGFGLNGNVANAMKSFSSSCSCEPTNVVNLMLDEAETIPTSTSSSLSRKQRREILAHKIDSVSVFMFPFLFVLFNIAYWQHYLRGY

LGC-58 = target: T4, LGC-58 (Caenorhabditis elegans, UniProt Q2WF65)
T4 construct: full-length untagged cDNA in KSM vector, cRNA in Xenopus laevis oocytes; pentameric, expressed alone
T4 sequence (Q2WF65 21-546): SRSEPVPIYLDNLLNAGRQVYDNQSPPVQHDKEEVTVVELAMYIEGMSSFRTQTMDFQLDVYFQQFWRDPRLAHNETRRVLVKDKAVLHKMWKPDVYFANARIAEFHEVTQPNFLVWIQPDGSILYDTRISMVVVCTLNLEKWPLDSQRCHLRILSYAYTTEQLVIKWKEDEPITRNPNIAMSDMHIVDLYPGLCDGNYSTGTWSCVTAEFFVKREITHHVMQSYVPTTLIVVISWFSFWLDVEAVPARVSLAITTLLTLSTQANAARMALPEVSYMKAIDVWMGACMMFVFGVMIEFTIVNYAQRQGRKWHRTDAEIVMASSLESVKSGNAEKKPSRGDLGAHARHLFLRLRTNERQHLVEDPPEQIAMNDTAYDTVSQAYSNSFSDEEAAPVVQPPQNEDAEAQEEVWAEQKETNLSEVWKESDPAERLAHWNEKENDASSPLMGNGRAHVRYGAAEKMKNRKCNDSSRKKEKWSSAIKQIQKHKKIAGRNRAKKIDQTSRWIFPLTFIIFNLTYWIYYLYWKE

LGC-49 = target: T5, LGC-49 (Caenorhabditis elegans, UniProt Q21420)
T5 construct: full-length cDNA in KSM vector, cRNA in Xenopus laevis oocytes; homomeric pentameric channel
T5 sequence (Q21420 26-457): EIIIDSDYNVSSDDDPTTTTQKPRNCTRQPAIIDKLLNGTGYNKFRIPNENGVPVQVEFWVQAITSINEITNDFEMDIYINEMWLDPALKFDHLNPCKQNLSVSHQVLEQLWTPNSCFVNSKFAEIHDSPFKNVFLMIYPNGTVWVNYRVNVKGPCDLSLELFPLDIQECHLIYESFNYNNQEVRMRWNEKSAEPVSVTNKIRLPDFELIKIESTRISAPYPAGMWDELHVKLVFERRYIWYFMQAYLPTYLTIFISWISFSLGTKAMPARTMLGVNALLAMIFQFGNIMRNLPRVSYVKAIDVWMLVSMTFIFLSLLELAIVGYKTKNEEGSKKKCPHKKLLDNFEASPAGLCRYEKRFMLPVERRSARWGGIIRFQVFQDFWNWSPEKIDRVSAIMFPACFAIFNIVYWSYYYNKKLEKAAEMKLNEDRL

LGC-39 [1] = target: T6, LGC-39 (Caenorhabditis elegans, UniProt O17402)
T6 construct: full-length cDNA by gene synthesis, KSM vector, cRNA in Xenopus laevis oocytes; homomeric pentameric channel
T6 sequence (O17402 22-563): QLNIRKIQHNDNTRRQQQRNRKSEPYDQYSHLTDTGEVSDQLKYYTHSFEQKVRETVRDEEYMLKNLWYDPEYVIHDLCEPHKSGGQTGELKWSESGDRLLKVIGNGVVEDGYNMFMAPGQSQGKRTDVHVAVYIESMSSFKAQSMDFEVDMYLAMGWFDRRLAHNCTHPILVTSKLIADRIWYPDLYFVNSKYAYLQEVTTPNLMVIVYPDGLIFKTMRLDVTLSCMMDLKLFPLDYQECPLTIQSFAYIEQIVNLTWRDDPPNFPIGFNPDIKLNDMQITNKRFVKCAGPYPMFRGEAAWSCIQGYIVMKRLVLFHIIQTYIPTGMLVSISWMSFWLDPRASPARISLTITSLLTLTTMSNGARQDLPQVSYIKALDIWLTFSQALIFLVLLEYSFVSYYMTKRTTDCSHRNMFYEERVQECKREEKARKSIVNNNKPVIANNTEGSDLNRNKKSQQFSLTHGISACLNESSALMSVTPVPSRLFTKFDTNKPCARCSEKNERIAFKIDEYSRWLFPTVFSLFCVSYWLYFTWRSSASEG

LGC-39 [2] = target: T6, LGC-39; remark: listed apart in the source

Compound: C[N+](C)(C)CCO [choline]
EC50 (LGC-57): 22 µM | EC50 (LGC-40): 15 µM | EC50 (LGC-58): 15 µM

Compound: NC[C@H](O)c1ccc(O)cc1 [octopamine]
EC50 (LGC-39 [1]; read-out: EC50): 921 µM

Compound: O=C1C[C@@H]2OCC=C3CN4CC[C@]56c7ccccc7N1[C@H]5[C@H]2[C@H]3C[C@H]46 [strychnine]
EC50 (LGC-39 [1]): 7.5 µM

Compound: NCCc1ccc(O)cc1 [tyramine]
EC50 (LGC-39 [1]; read-out: EC50): 686 µM

Further lines, with some results ahead:

EC50 (LGC-57): 115 µM | EC50 (LGC-40): 117 µM | EC50 (LGC-58): 41 µM | EC50 (LGC-49): 19 µM | EC50 (LGC-39 [1]; read-out: EC50): 1290 µM
Compound: CC(=O)OCC[N+](C)(C)C [acetylcholine]
EC50 (LGC-46): the ACh-induced dose–response curve for LGC-46

IC50 (LGC-39 [2]): 1 µM | EC50 (LGC-39 [1]; read-out: EC50): 10 µM
Compound: NC1=NCC2c3ccccc3Cc3ccccc3N12 (stereo not drawn) [epinastine]

IC50 (LGC-39 [2]): 4 µM
Compound: COC(=O)[C@@H]1[C@H]2C[C@H]3c4[nH]c5ccccc5c4CCN3C[C@@H]2CC[C@@H]1O [yohimbine]
